Values joined by “and” are separate entries in the source; they are usually repeats but may differ in a detail not shown here. Identical values can stand only once. Results filed as inconclusive are left out. Where a SMILES comes first, the peptide text is derived from it. The star is where a group is joined. Trt = c1ccc(C(c2ccccc2)(c2ccccc2)*)cc1; Cbz = O=C(OCc1ccccc1)*; Bn = c1ccc(C*)cc1; βAla = NCCC(=O)O
System: MX-1 breast xenograft, nude mice, tumor weight T/C
Test: NCI In Vivo Anticancer Drug Screen. Data for tumor model Human Mammary Carcinoma MX-1 Xenograft (intrarenal inoculation) in NU/NU Swiss (nude) mice
Settings: endpoint: mean tumor weight change, higher = larger tumour
Summary of the method: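 Read-out: treated (T) over vehicle control (C) ratio of survival or tumor size. Dosing in animals carrying the transplanted tumor.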

[1] = dose: 6.0 mg/kg/injection, schedule: Q04DX003 (sc), vehicle: suspension in saline
[2] = dose: 150.0 mg/kg/injection, schedule: Q04DX003 (sc), vehicle: saline with Tween-80
[3] = dose: 300.0 mg/kg/injection, schedule: Q04DX003 (sc), vehicle: saline with Tween-80
[4] = dose: 600.0 mg/kg/injection, schedule: Q04DX003 (sc), vehicle: saline with Tween-80
[5] = dose: 1200.0 mg/kg/injection, schedule: Q04DX003 (sc), vehicle: saline with Tween-80
[6] = dose: 50.0 mg/kg/injection, schedule: Q01DX010 (sc), vehicle: saline + Tween-80 + alcohol
[7] = dose: 100.0 mg/kg/injection, schedule: Q01DX010 (sc), vehicle: saline + Tween-80 + alcohol
[8] = dose: 200.0 mg/kg/injection, schedule: Q01DX010 (sc), vehicle: saline + Tween-80 + alcohol
[9] = dose: 100.0 mg/kg/injection, schedule: Q04DX003 (sc), vehicle: water
[10] = dose: 100.0 mg/kg/injection, schedule: Q01DX010 (sc), vehicle: saline
[11] = dose: 50.0 mg/kg/injection, schedule: Q04DX003 (sc), vehicle: saline
[12] = dose: 200.0 mg/kg/injection, schedule: Q04DX003 (sc), vehicle: saline
[13] = dose: 300.0 mg/kg/injection, schedule: Q04DX003 (sc), vehicle: Klucel (hydroxypropylcellulose) (HPC)
[14] = dose: 600.0 mg/kg/injection, schedule: Q04DX003 (sc), vehicle: Klucel (hydroxypropylcellulose) (HPC)

With `CC(=O)OC1C(O)C(C)OC(OC2C(OC(=O)C3CCC4C(C3)OC3(CC(OC(=O)/C=C/c5ccccc5)C(C)CO3)C43CO3)OC(C)C(O)C2OC(C)=O)C1O` (stereo not drawn) the T/C (dose: 15.0 mg/kg/injection, schedule: Q04DX003 (sc), vehicle: distilled water + Tween-80) was 124 % of control, the T/C (dose: 30.0 mg/kg/injection, schedule: Q04DX003 (sc), vehicle: distilled water + Tween-80) was 117 % of control and the T/C (dose: 60.0 mg/kg/injection, schedule: Q04DX003 (sc), vehicle: distilled water + Tween-80) was 73 % of control. The T/C (dose: 120.0 mg/kg/injection, schedule: Q04DX003 (sc), vehicle: distilled water + Tween-80) was 61 % of control.
For `CCCNC1=C(C)C(=O)C2=C(C1=O)[C@H](COC(N)=O)[C@]1(OC)[C@@H]3N[C@@H]3CN21`, the T/C [1] was 1 % of control and the T/C (dose: 12.0 mg/kg/injection, schedule: Q04DX003 (sc), vehicle: suspension in saline) was -83 % of control.
With `O=c1[nH]c(=O)c2nc(-c3cccnc3)cnc2[nH]1` the T/C (dose: 200.0 mg/kg/injection, schedule: Q04DX003 (sc), vehicle: Klucel (hydroxypropylcellulose) (HPC)) was 36 % of control.
In the case of `COC(=O)Nc1nc2ccc(C3(c4ccc(F)cc4)OCCO3)cc2[nH]1`, the T/C (dose: 50.0 mg/kg/injection, schedule: Q04DX003 (sc), vehicle: saline with Tween-80) is reported as 100 % of control and the T/C (dose: 100.0 mg/kg/injection, schedule: Q04DX003 (sc), vehicle: saline with Tween-80) is reported as 79 % of control.
For `Cc1cccc(OCC(O)CN2CC2)c1` (stereo not drawn), the T/C (dose: 50.0 mg/kg/injection, schedule: Q04DX003 (ip), vehicle: saline with Tween-80) was 70 % of control, the T/C (dose: 100.0 mg/kg/injection, schedule: Q04DX003 (ip), vehicle: saline with Tween-80) was 58 % of control and the T/C (dose: 200.0 mg/kg/injection, schedule: Q04DX003 (ip), vehicle: saline with Tween-80) was 43 % of control.
With `CN=C(N)N/N=C(\C)c1ccc2c(c1)Cc1ccccc1-2` the T/C [2] was 105 % of control, the T/C [3] was 115 % of control and the T/C [4] was 105 % of control. The T/C [5] was 191 % of control.
With `CC1=CC(C)(C)Nc2ccc(CSc3ccccc3)cc21` the T/C (dose: 25.0 mg/kg/injection, schedule: Q01DX010 (sc), vehicle: saline + Tween-80 + alcohol) was 85 % of control, the T/C [6] was 153 % of control and the T/C [7] was 79 % of control and 102 % of control. For the same compound, the T/C [8] was 89 % of control.
In the case of `c1cc(NC2CCCCC2)ccc1CN1CCOCC1`, the T/C [6] is reported as 66 % of control, the T/C [7] is reported as 38 % of control and the T/C [8] is reported as 81 % of control. For the same compound, the T/C (dose: 400.0 mg/kg/injection, schedule: Q01DX010 (sc), vehicle: saline + Tween-80 + alcohol) was 61 % of control.
For `CC(=O)OC(C)C1C2=C(C(=O)CC1(C)O)C(=O)c1c(ccc(-c3ccc4c(c3O)C(=O)C3=C(C4=O)C(C(C)OC(C)=O)C(C)(O)CC3=O)c1O)C2=O` (stereo not drawn), the T/C (dose: 7.5 mg/kg/injection, schedule: Q04DX003 (sc), vehicle: saline with Tween-80) was 33 % of control, the T/C (dose: 30.0 mg/kg/injection, schedule: Q04DX003 (sc), vehicle: saline with Tween-80) was 98 % of control and the T/C (dose: 60.0 mg/kg/injection, schedule: Q04DX003 (sc), vehicle: saline with Tween-80) was 96 % of control.
`NC(CNC(=O)CBr)C(=O)O` (stereo not drawn) was tested, and the T/C (dose: 37.5 mg/kg/injection, schedule: Q04DX003 (sc), vehicle: water) was 53 % of control, the T/C (dose: 75.0 mg/kg/injection, schedule: Q04DX003 (sc), vehicle: water) was 10 % of control and 17 % of control and the T/C [9] was 9 % of control. For the same compound, the T/C (dose: 150.0 mg/kg/injection, schedule: Q04DX003 (sc), vehicle: water) was 8 % of control and 13 % of control.
In the case of `COc1cc2cc3cc4cc(OC)c(OC)cc4c(C)[n+]3cc2cc1OC` (tested in a mixture with another compound), the T/C (dose: 1200.0 mg/kg/injection, schedule: Q04DX003 (sc), vehicle: suspension in saline) is reported as 61 % of control and the T/C (dose: 2400.0 mg/kg/injection, schedule: Q04DX003 (sc), vehicle: suspension in saline) is reported as 84 % of control.
In the case of `CCCC(=O)O`, the T/C [10] is reported as 104 % of control.
`CNC(=O)ON(C(C)=O)C(=O)NC` was tested, and the T/C [11] was 69 % of control, the T/C (dose: 100.0 mg/kg/injection, schedule: Q01DX010 (sc), vehicle: water) was 108 % of control and the T/C (dose: 150.0 mg/kg/injection, schedule: Q01DX010 (sc), vehicle: water) was 67 % of control. For the same compound, the T/C (dose: 200.0 mg/kg/injection, schedule: Q01DX010 (sc), vehicle: water) was 85 % of control and the T/C [12] was 16 % of control.
For `NC(C/[N+]([O-])=N/O)C(=O)O` (stereo not drawn), the T/C (dose: 50.0 mg/kg/injection, schedule: Q01DX010 (sc), vehicle: saline) was 98 % of control and the T/C [10] was 62 % of control.
For `CC1=C(/C=C/C(C)=C/C=C/C(C)=C/CO)C(C)(C)CCC1`, the T/C (dose: 200.0 mg/kg/injection, schedule: Q04DX003 (sc), vehicle: saline with Tween-80) was 89 % of control, the T/C (dose: 400.0 mg/kg/injection, schedule: Q04DX003 (sc), vehicle: saline with Tween-80) was 112 % of control and the T/C (dose: 800.0 mg/kg/injection, schedule: Q04DX003 (sc), vehicle: saline with Tween-80) was 84 % of control. The T/C (dose: 1600.0 mg/kg/injection, schedule: Q04DX003 (sc), vehicle: saline with Tween-80) was 96 % of control.
In the case of `OCC1OC(n2cnc3c(NO)ncnc32)C(O)C1O` (stereo not drawn), the T/C [13] is reported as 65 % of control, the T/C [14] is reported as 70 % of control and the T/C (dose: 1200.0 mg/kg/injection, schedule: Q04DX003 (sc), vehicle: Klucel (hydroxypropylcellulose) (HPC)) is reported as 100 % of control. For the same compound, the T/C (dose: 2400.0 mg/kg/injection, schedule: Q04DX003 (sc), vehicle: Klucel (hydroxypropylcellulose) (HPC)) was 82 % of control.
In the case of `Nc1nc(N)c2cc(S(=O)(=O)c3ccccc3)ccc2n1`, the T/C [2] is reported as 160 % of control, the T/C [3] is reported as 171 % of control and the T/C [4] is reported as 185 % of control. The T/C [5] was 152 % of control.
In the case of `CCN1/C(=C/C=C/C=C/c2sc3ccccc3[n+]2CC)Sc2ccccc21`, the T/C (dose: 1.5 mg/kg/injection, schedule: Q04DX003 (sc), vehicle: suspension in saline) is reported as 56 % of control, the T/C (dose: 3.0 mg/kg/injection, schedule: Q04DX003 (sc), vehicle: suspension in saline) is reported as 35 % of control and the T/C [1] is reported as 71 % of control.
For `COC(=O)C(CSC(c1ccccc1)(c1ccccc1)c1ccccc1)NC(=O)C(CSCc1ccccc1)NC(=O)CCNC(=O)OCc1ccccc1` (stereo not drawn) ({Cbz-βAla}-Cys(Bn)-Cys(Trt)-OMe; configuration not given here), the T/C (dose: 75.0 mg/kg/injection, schedule: Q04DX003 (sc), vehicle: Klucel (hydroxypropylcellulose) (HPC)) was 99 % of control, the T/C (dose: 150.0 mg/kg/injection, schedule: Q04DX003 (sc), vehicle: Klucel (hydroxypropylcellulose) (HPC)) was 49 % of control and the T/C [13] was 63 % of control. The T/C [14] was 60 % of control.
With `CN(C)N=Nc1cn[nH]c1C(N)=O` the T/C (dose: 100.0 mg/kg/injection, schedule: Q04DX003 (sc), vehicle: suspension in saline) was 98 % of control, the T/C [12] was 63 % of control and the T/C (dose: 200.0 mg/kg/injection, schedule: Q04DX003 (sc), vehicle: suspension in saline) was 67 % of control. For the same compound, the T/C (dose: 400.0 mg/kg/injection, schedule: Q04DX003 (sc), vehicle: saline) was 49 % of control, the T/C (dose: 400.0 mg/kg/injection, schedule: Q04DX003 (sc), vehicle: suspension in saline) was 31 % of control and 37 % of control and the T/C (dose: 800.0 mg/kg/injection, schedule: Q04DX003 (sc), vehicle: saline) was 13 % of control. For the same compound, the T/C (dose: 800.0 mg/kg/injection, schedule: Q04DX003 (sc), vehicle: suspension in saline) was 2 % of control and 7 % of control.
For `CCOC(=O)CNC(=O)CCCCSc1ncnc2nc[nH]c12`, the T/C [5] was 109 % of control and the T/C (dose: 2400.0 mg/kg/injection, schedule: Q04DX003 (sc), vehicle: saline with Tween-80) was 86 % of control.
For `Nc1ccccc1N`, the T/C (dose: 25.0 mg/kg/injection, schedule: Q01DX010 (sc), vehicle: Klucel (hydroxypropylcellulose) (HPC)) was 103 % of control, the T/C (dose: 100.0 mg/kg/injection, schedule: Q01DX010 (sc), vehicle: Klucel (hydroxypropylcellulose) (HPC)) was 80 % of control and 211 % of control and the T/C (dose: 200.0 mg/kg/injection, schedule: Q01DX010 (sc), vehicle: Klucel (hydroxypropylcellulose) (HPC)) was 34 % of control and 47 % of control.
With `CNC(=O)c1cccc2c(Nc3ccc(NS(C)(=O)=O)cc3OC)c3cccc(C)c3nc12` the T/C (dose: 50.0 mg/kg/injection, schedule: Q04DX003 (sc), vehicle: water) was 111 % of control, the T/C [9] was 73 % of control and the T/C (dose: 200.0 mg/kg/injection, schedule: Q04DX003 (sc), vehicle: water) was 31 % of control.
For `OCC1OC(n2cnc3cncnc32)C(O)C1O` (stereo not drawn), the T/C (dose: 12.5 mg/kg/injection, schedule: Q04DX003 (sc), vehicle: saline) was 90 % of control, the T/C (dose: 25.0 mg/kg/injection, schedule: Q04DX003 (sc), vehicle: saline) was 106 % of control and the T/C [11] was 78 % of control.
